Results as given in patent US10577373B2, “TYK2 inhibitors and uses thereof” (Nimbus Lakshmi, Inc., priority 2017, dated 2020).
Like-named read-outs stand apart in the source and are kept apart here.

What was measured:
[1] = tested on: IL-12 induced STAT4 phophorylation mediated by Tyk2/JAK2 (heterodimeric complex); test: IL-12 Induced pSTAT4 in Human PBMC; type: cell-based; conditions: 1.7 ng/mL IL-12
From the text: The IL-12 Induced pSTAT4 assay evaluates the inhibition of IL-12 induced STAT4 phophorylation mediated by Tyk2/JAK2 (heterodimeric complex).

[2] = tested on: GM-CSF induced STAT5 phosphorylation mediated by the JAK2/JAK2 homdimeric complex; test: GM-CSF Induced pSTAT5 in Human PBMC
From the text: Human PBMC are isolated from buffy coat and are stored frozen for assays as needed.

[3] = Homo sapiens, PBMC, 20 min, read-out: PBMC_GMCSF_pSTAT5 IC50, human PBMC, GM-CSF 5 ng/mL for 20 minutes, pSTAT5
[4] = Homo sapiens, PBMC, 20 min, read-out: PBMC_GMCSF_pSTAT5 IC50

Row | IC50 [1] [nM] | IC50 [2, 3] [nM] | IC50 ([2]; read-out: PBMC_GMCSF_pSTAT5 IC50, human PBMC, GM-CSF 5 ng/mL for 20 minutes, pSTAT5) [nM] | SMILES | IC50 [2, 4] [nM]
1 | < 100 | > 12500 |  | CNc1cc(Nc2cc(Cl)cn(C3CCN(C)CC3)c2=O)nc2c(C(=O)NC3CC3)cnn12 [I-883] | 
2 | < 100 | > 2500 |  | CNc1cc(Nc2cccn(-c3cc(C)n(C)n3)c2=O)nc2c(C(=O)NC3CCC3)cnn12 [I-136] | 
3 | < 100 | > 2500 |  | CCOc1ccc(-n2cccc(Nc3cc(NC)n4ncc(C(=O)N[C@H]5C[C@H]5F)c4n3)c2=O)nn1 [I-117] | 
4 | < 100 | > 50000 |  | CNc1cc(Nc2cc(Cl)cn(-c3ccc(C4CC4)nn3)c2=O)nc2c(C(=O)N[C@H]3C[C@H]3F)cnn12 [I-334] | 
5 | < 100 | > 50000 |  | CNc1cc(Nc2cccc(N3CCCC3=O)n2)nc2c(C(=O)NC3CCC3)cnn12 [I-94] | 
6 | < 100 | > 50000 |  | CNc1cc(Nc2cccnc2OC(F)F)nc2c(C(=O)NC3CCC3)cnn12 [I-151] | 
7 | < 100 | > 2500 |  | CNc1cc(Nc2cc(Cl)cn(-c3ccnc(C)n3)c2=O)nc2c(C(=O)N[C@H]3C[C@H]3F)cnn12 [I-317] | 
8 | < 100 | > 12500 |  | CNc1cc(Nc2cc(C)cn(-c3ccn(C)n3)c2=O)nc2c(C(=O)N[C@H]3C[C@H]3F)cnn12 [I-250] | 
9 | < 100 | > 12500 |  | CNc1cc(Nc2cc(F)cn(-c3ccn(C)n3)c2=O)nc2c(C(=O)NC3CC3)cnn12 [I-378] | 
10 | < 100 | > 2500 |  | CNc1cc(Nc2cc(Cl)cn(-c3cnc(C(=O)N(C)C)cn3)c2=O)nc2c(C(=O)NC3CC3)cnn12 [I-318] | 
11 | < 100 | > 50000 |  | CNc1cc(Nc2cccn([C@@H]3CCC[C@H](OC)C3)c2=O)nc2c(C(=O)N[C@@H]3CC[C@H]3OC)cnn12 [I-995] | 
12 | < 100 |  | > 12500 | CNc1cc(Nc2cccc3ocnc23)nc2c(C(=O)N[C@@H]3CC[C@@H]3O)cnn12 [I-661] | 
13 | < 100 | > 2500 |  | CNc1cc(-c2cn(C(C)C)c3ncccc23)nc2c(C(=O)N[C@H]3C[C@H](O)C3)cnn12 [I-630, N-((1r,3r)-3-hydroxycyclobutyl)-5-(1-isopropyl-1H-pyrrolo[2,3-b]pyridin-3-yl)-7-(methylamino)pyrazolo[1,5-a]pyrimidine-3-carboxamide] | 
14 | 100 to 500 | > 50000 |  | CNc1cc(Nc2cccn(C3CCN(CCF)CC3)c2=O)nc2c(C(=O)NCC(C)(C)CO)cnn12 [I-847] | 
15 | < 100 | > 2500 |  | CNc1cc(Nc2cc(Cl)cn(-c3ncc(C)s3)c2=O)nc2c(C(=O)N[C@H]3C[C@H]3F)cnn12 [I-323] | 
16 | < 100 | > 50000 |  | CNc1cc(Nc2cccn([C@@H]3CCC[C@H](OC)C3)c2=O)nc2c(C(=O)NC3CC3)cnn12 [I-621] | 
17 | < 100 | > 50000 |  | CNc1cc(Nc2cccn([C@H]3[C@@H]4COC[C@@H]43)c2=O)nc2c(C(=O)N[C@@H]3C[C@@H]3F)cnn12 [I-811] | 
18 | 100 to 500 | > 2500 |  | CNc1cc(Nc2cc(C)cnc2OCCOC)nc2c(C(=O)NC3CC3)cnn12 [I-281] | 
19 | < 100 | > 50000 |  | CNc1cc(Nc2cc(Cl)cn(C3CCOCC3)c2=O)nc2c(C(=O)N[C@@H]3CC[C@H]3O)cnn12 [I-825] | 
20 | < 100 | > 50000 |  | CNc1cc(Nc2cc(Cl)cn(C3CCCOC3)c2=O)nc2c(C(=O)NC3CC3)cnn12 (centres unmarked) [I-711] | 
21 | < 100 | > 12500 |  | CNc1cc(Nc2cccn(-c3ccccn3)c2=O)nc2c(C(=O)N[C@H]3CC[C@H]3O)cnn12 [I-805] | 
22 | < 100 | > 12500 |  | CNc1cc(Nc2cccnc2OC(F)F)nc2c(C(=O)N[C@H]3C[C@H]3F)cnn12 [I-153] | 
23 | < 100 | > 50000 |  | CNc1cc(Nc2cccnc2OC)nc2c(C(=O)N[C@@H]3CC[C@H]3O)cnn12 [I-396] | 
24 | < 100 | > 50000 |  | [2H]C([2H])([2H])Oc1ncccc1Nc1cc(NC)n2ncc(C(=O)NC3CCC3)c2n1 [I-176] | 
25 | < 100 | > 50000 |  | CNc1cc(Nc2cccn([C@H]3CCCOC3)c2=O)nc2c(C(=O)NC3CC3)cnn12 [I-352] | 
26 | < 100 | > 300 |  | CNc1cc(Nc2cccc(N3CCCC3=O)n2)nc2c(C(N)=O)cnn12 [I-47] | 
27 | < 100 | > 12500 |  | CNc1cc(Nc2cc(F)cn(-c3cnn(C)c3)c2=O)nc2c(C(=O)N[C@H]3C[C@H]3F)cnn12 [I-381] | 

Row | IC50 [1] [nM] | IC50 [2, 3] [nM] | IC50 ([2]; read-out: PBMC_GMCSF_pSTAT5 IC50, human PBMC, GM-CSF 5 ng/mL for 20 minutes, pSTAT5) [nM] | SMILES | IC50 [2, 4] [nM]
28 | < 100 | > 2500 |  | CNc1cc(Nc2cc(Cl)cn(-c3ccn(C)n3)c2=O)nc2c(C(=O)NC3CC3)cnn12 [I-310] | 
29 | < 100 | > 12500 |  | CNc1cc(Nc2cc(F)cnc2OC2CC2)nc2c(C(=O)NC3CC3)cnn12 [I-274] | 
30 | < 100 | > 12500 |  | CNc1cc(Nc2cccnc2OCCOC)nc2c(C(=O)NC3CCC3)cnn12 [I-219] | 
31 | < 100 | > 2500 |  | [2H]C([2H])([2H])Oc1ncccc1Nc1cc(NC)n2ncc(C(=O)N[C@H]3C[C@H](O)C3)c2n1 [I-321, N-((1r,3r)-3-hydroxycyclobutyl)-5-((2-(methoxy-d3)pyridin-3-yl)amino)-7-(methylamino)pyrazolo[1,5-a]pyrimidine-3-carboxamide] | 
32 | < 100 | > 50000 |  | CNc1cc(Nc2cccn(C3CCCOC3)c2=O)nc2c(C(=O)NC3CCC3)cnn12 (racemic) [I-324] | 
33 | < 100 | > 12500 |  | CNc1cc(Nc2cccn(-c3cnc(C)o3)c2=O)nc2c(C(=O)N[C@H]3C[C@H]3F)cnn12 [I-718] | 
34 | < 100 | > 2500 |  | CNc1cc(Nc2cc(F)cn(-c3ccn(C)n3)c2=O)nc2c(C(=O)N[C@H]3C[C@H]3F)cnn12 [I-379] | 
35 | < 100 | > 12500 |  | CNc1cc(Nc2cccn(-c3ccc(OC)cn3)c2=O)nc2c(C(=O)N[C@H]3C[C@H]3F)cnn12 [I-265] | 
36 | < 100 | > 50000 |  | CNc1cc(-c2cn(C3CC3)c3ncccc23)nc2c(C(=O)N[C@H]3CC[C@H]3O)cnn12 [I-992, 5-(1-cyclopropyl-1H-pyrrolo[2,3-b]pyridin-3-yl)-N-((1S,2R)-2-hydroxycyclobutyl)-7-(methylamino)pyrazolo[1,5-a]pyrimidine-3-carboxamide] | 
37 | 100 to 500 | > 12500 |  | CNc1cc(Nc2cccn(-c3cccnc3)c2=O)nc2c(C(=O)NC3CC3)cnn12 [I-747] | 
38 | < 100 | > 50000 |  | CNc1cc(Nc2cc(C)cn(-c3cnn(C)c3)c2=O)nc2c(C(=O)NC3CC3)cnn12 [I-233] | 
39 | < 100 | > 50000 |  | CNc1cc(Nc2cc(F)cc(F)c2F)nc2c(C(=O)NC3CC3)cnn12 [I-5] | 
40 | < 100 | > 2500 |  | CNc1cc(Nc2cc(Cl)cn(-c3ccn(C4CC4)n3)c2=O)nc2c(C(=O)N[C@H]3C[C@H]3F)cnn12 [I-332] | 
41 | < 100 | > 50000 |  | CNc1cc(Nc2cccnc2OC)nc2c(C(=O)N[C@H]3C[C@@H]3O)cnn12 [I-438, N-((1S,2S)-2-hydroxycyclopropyl)-5-((2-methoxypyridin-3-yl)amino)-7-(methylamino)pyrazolo[1,5-a]pyrimidine-3-carboxamide] | 
42 | 100 to 500 | > 2500 |  | CNc1cc(Nc2cc(C)cnc2OCCOC)nc2c(C(=O)NC3CCC3)cnn12 [I-282] | 
43 | < 100 | > 50000 |  | CNc1cc(Nc2cccn(-c3cccc(F)c3)c2=O)nc2c(C(=O)N[C@@H]3CC[C@H]3O)cnn12 [I-946] | 
44 | < 100 | > 300 |  | CNc1cc(Nc2cc(Cl)cn([C@H]3CCCOC3)c2=O)nc2c(C(=O)N[C@@H]3C[C@@H]3F)cnn12 [I-772] | 
45 | < 100 | > 50000 |  | CNc1cc(Nc2cccn(C3CCN(CCF)CC3)c2=O)nc2c(C(=O)N[C@H]3C[C@H]3F)cnn12 [I-570] | 
46 | < 100 | > 12500 |  | CNc1cc(Nc2cccn(-c3cc(C)on3)c2=O)nc2c(C(=O)N[C@H]3C[C@H]3F)cnn12 [I-161] | 
47 | < 100 | > 12500 |  | [2H]C([2H])([2H])Oc1ncc(C)cc1Nc1cc(NC)n2ncc(C(=O)N[C@H]3C[C@H]3F)c2n1 [I-259] | 
48 | < 100 | > 12500 |  | CNc1cc(Nc2cccnc2OC(F)F)nc2c(C(=O)NC3CC3)cnn12 [I-154] | 
49 | < 100 | > 2500 |  | CNc1cc(Nc2cc(Cl)cn(-c3cnc(C(=O)N(C)C)cn3)c2=O)nc2c(C(=O)N[C@H]3C[C@H]3F)cnn12 [I-319] | 
50 | < 100 | > 12500 |  | CCONC(=O)c1cnn2c(NC)cc(Nc3cccnc3OC)nc12 [I-409, N-ethoxy-5-((2-methoxypyridin-3-yl)amino)-7-(methylamino)pyrazolo[1,5-a]pyrimidine-3-carboxamide] | 
51 | < 100 | > 12500 |  | CNc1cc(-c2cn(C(C)C)c3ncccc23)nc2c(C(=O)N[C@H]3CC[C@H]3O)cnn12 [I-637] | 
52 | 100 to 500 | > 50000 |  | COc1ncccc1Nc1cc(NCCCN2CCOCC2)n2ncc(C(=O)N[C@@H]3C[C@@H]3F)c2n1 (stereo in doubt) [I-377, N-((1R,2S)-2-fluorocyclopropyl)-5-((2-methoxypyridin-3-yl)amino)-7-((3-morpholinopropyl)amino)pyrazolo[1,5-a]pyrimidine-3-carboxamide] | 
53 | < 100 | > 12500 |  | CNc1cc(Nc2cccn(-c3ccn(C)n3)c2=O)nc2c(C(=O)NC3CC3)cnn12 [I-294] | 

Row | SMILES | IC50 [1] [nM] | IC50 [2, 3] [nM] | IC50 ([2]; read-out: PBMC_GMCSF_pSTAT5 IC50, human PBMC, GM-CSF 5 ng/mL for 20 minutes, pSTAT5) [nM] | IC50 [2, 4] [nM]
54 | CCONC(=O)c1cnn2c(NC)cc(Nc3cccn(-c4ncccc4F)c3=O)nc12 [I-798, N-ethoxy-5-((3′-fluoro-2-oxo-2H-[1,2′-bipyridin]-3-yl)amino)-7-(methylamino) pyrazolo[1,5-a]pyrimidine-3-carboxamide] | […] |  |  | > 50000
55 | CNc1cc(Nc2cccnc2OC)nc2c(C(=O)NCC3(CO)CC3)cnn12 [I-425] | < 100 |  |  | > 50000
